Measured values reported in ChEMBL document CHEMBL1201862, “PubChem BioAssay data set” (2004).
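All cell lines were grown in 96-well plates and treated with compound for 48 hours. GI50 = concentration required for 50% inhibition of growth.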 The source made the active and inactive calls. No stated cut-off is given here; in the data, active = GI50 up to about 1.1 µM and inactive = higher.

Experiments:
Assay in all cases: inhibition of tumour cell growth, NCI panel, 48 h
A549 = test system: A549
CAKI-1 = test system: CAKI-1
COLO 205 = test system: COLO 205
DU-145 = test system: DU-145
HL-60 = test system: HL-60
K562 = test system: K562
LOX IMVI = test system: LOX IMVI
MCF7 = test system: MCF7
MDA-MB-435 = test system: MDA-MB-435
NCI-H460 = test system: NCI-H460
NCI/ADR-RES = test system: NCI/ADR-RES
OVCAR-4 = test system: OVCAR-4
SF-295 = test system: SF-295
SK-MEL-2 = test system: SK-MEL-2
SNB-19 = test system: SNB-19
SNB-75 = test system: SNB-75
SW-620 = test system: SW-620
UACC-257 = test system: UACC-257
UACC-62 = test system: UACC-62
NCI-H522 = test system: NCI-H522

Compound	GI50 (A549)	GI50 (CAKI-1)	GI50 (COLO 205)	GI50 (DU-145)	GI50 (HL-60)	GI50 (K562)	GI50 (LOX IMVI)	GI50 (MCF7)	GI50 (MDA-MB-435)	GI50 (NCI-H460)	GI50 (NCI/ADR-RES)	GI50 (OVCAR-4)	GI50 (SF-295)	GI50 (SK-MEL-2)	GI50 (SNB-19)	GI50 (SNB-75)	GI50 (SW-620)	GI50 (UACC-257)	GI50 (UACC-62)	GI50 (NCI-H522)
CCOC(OCC)C(CCc1ccccc1)c1c(N)nc(N)[nH]c1=O (configuration not stated)	54.1 µM (inactive)	34.9 µM (inactive)	17.4 µM (inactive)	83.9 µM (inactive)	25.2 µM (inactive)	24.7 µM (inactive)	64.3 µM (inactive)	33.1 µM (inactive)	32.4 µM (inactive)	56.8 µM (inactive)	> 100 µM (inactive)	46.1 µM (inactive)	53.1 µM (inactive)	53 µM (inactive)	> 100 µM (inactive)	> 100 µM (inactive)	78.7 µM (inactive)	> 100 µM (inactive)	46.1 µM (inactive)	–
COc1ccc(C2=NN(C(=O)c3ccccc3)C(O)(c3cc(F)c(Cl)cc3Cl)C2)cc1OC (configuration not stated)	93.8 µM (inactive)	27.5 µM (inactive)	> 100 µM (inactive)	39 µM (inactive)	> 100 µM (inactive)	> 100 µM (inactive)	97.1 µM (inactive)	32.1 µM (inactive)	31.8 µM (inactive)	83.2 µM (inactive)	62.1 µM (inactive)	18.5 µM (inactive)	29.5 µM (inactive)	29 µM (inactive)	36.5 µM (inactive)	–	> 100 µM (inactive)	60.4 µM (inactive)	45.6 µM (inactive)	56.1 µM (inactive)
COc1cc(C2C(Cl)C(=O)N2c2c(C)n(C)n(-c3ccccc3)c2=O)ccc1O (configuration not stated)	26.2 µM (inactive)	33.6 µM (inactive)	16.3 µM (inactive)	29.7 µM (inactive)	23.3 µM (inactive)	26.6 µM (inactive)	16.5 µM (inactive)	13.2 µM (inactive)	16.4 µM (inactive)	23.6 µM (inactive)	30.3 µM (inactive)	16.5 µM (inactive)	22.2 µM (inactive)	20.3 µM (inactive)	–	–	15 µM (inactive)	16.4 µM (inactive)	16 µM (inactive)	13.6 µM (inactive)
COC(=O)[C@@H]1Cc2ccc(OC)c(c2)OCCC(=O)N1	> 100 µM (inactive)	> 100 µM (inactive)	> 100 µM (inactive)	> 100 µM (inactive)	–	> 100 µM (inactive)	–	> 100 µM (inactive)	> 100 µM (inactive)	–	> 100 µM (inactive)	> 100 µM (inactive)	> 100 µM (inactive)	> 100 µM (inactive)	> 100 µM (inactive)	> 100 µM (inactive)	> 100 µM (inactive)	> 100 µM (inactive)	> 100 µM (inactive)	> 100 µM (inactive)
CCOC(=O)CC(=O)Nc1cccc2sc3ncccc3c(=O)c12	18.4 µM (inactive)	27.9 µM (inactive)	68.2 µM (inactive)	84.9 µM (inactive)	–	20.6 µM (inactive)	19 µM (inactive)	0.57 µM (active)	44.7 µM (inactive)	19.5 µM (inactive)	36.8 µM (inactive)	83.2 µM (inactive)	43.5 µM (inactive)	34.3 µM (inactive)	51.3 µM (inactive)	12.9 µM (inactive)	> 100 µM (inactive)	> 100 µM (inactive)	31.7 µM (inactive)	45.4 µM (inactive)
COc1cc(C2c3cc4c(cc3[C@@H](Nc3cccc(O)c3)C3COC(=O)[C@H]23)OCO4)cc(OC)c1O (some centres not stated)	0.439 µM (active)	–	6.17 µM (inactive)	0.197 µM (active)	0.445 µM (active)	1.69 µM (inactive)	0.703 µM (active)	0.46 µM (active)	2.95 µM (inactive)	0.0726 µM (active)	1.4 µM (inactive)	12.2 µM (inactive)	1.09 µM (active)	5.2 µM (inactive)	3.7 µM (inactive)	2.38 µM (inactive)	2.8 µM (inactive)	2.05 µM (inactive)	1.2 µM (inactive)	1.32 µM (inactive)
COC(=O)[C@@H]1C[C@H]2[C@H](c3ccccc3Br)[C@@H](OC(C)=O)[C@@H](OCc3ccccc3)ON2O1	> 100 µM (inactive)	> 100 µM (inactive)	> 100 µM (inactive)	> 100 µM (inactive)	–	> 100 µM (inactive)	> 100 µM (inactive)	> 100 µM (inactive)	> 100 µM (inactive)	92.3 µM (inactive)	> 100 µM (inactive)	> 100 µM (inactive)	> 100 µM (inactive)	69.2 µM (inactive)	> 100 µM (inactive)	> 100 µM (inactive)	> 100 µM (inactive)	> 100 µM (inactive)	> 100 µM (inactive)	–
CC(=O)Nc1oc(C)c(C)c1S(=O)(=O)c1ccc(Cl)cc1	52 µM (inactive)	–	72.8 µM (inactive)	85.3 µM (inactive)	97.7 µM (inactive)	77.1 µM (inactive)	–	19.5 µM (inactive)	33.5 µM (inactive)	35.7 µM (inactive)	36 µM (inactive)	39.1 µM (inactive)	44.6 µM (inactive)	28.4 µM (inactive)	> 100 µM (inactive)	34.4 µM (inactive)	> 100 µM (inactive)	41 µM (inactive)	42 µM (inactive)	37.7 µM (inactive)
